Patent publication US10258634B2, “Ciclesonide for the treatment of airway disease in horses” (Boehringer Ingelheim Vetmedica GmbH, priority 2012, dated 2019)

Assays:
Type in all cases: in vivo
RAO horses [1] = test: 1st ciclesonide study: moldy hay challenge, lung function variables and breathing effort score; conditions: after 14 days
RAO horses [2] = test: 1st ciclesonide study: moldy hay challenge, serum cortisol; conditions: any ciclesonide group (450/900/1800 μg/horse twice daily); any measured time point
RAO horses [3] = test: 2nd ciclesonide study: moldy hay challenge, lung function variables and weighted clinical score
Text: (§1) The commercially available […]® is used in the study.

RAO horses [4] = test: 2nd ciclesonide study: moldy hay challenge, serum cortisol; conditions: any ciclesonide group (1687.5/2700 A/2700 B μg twice daily); any measured time point
Text: as §1

RAO horses [5] = test: Segmented neutrophil and lymphocyte counts in the 1st and 2nd ciclesonide studies; conditions: mean, n=8
Experimental: as §1
The segmented neutrophil counts and the lymphocyte counts are determined in the studies above: ciclesonide treatment versus dexamethasone treatment.
Concentration of segmented neutrophils and lymphocytes on day (D): D0, D14 and D21 in the treatment groups of dexamethasone and different doses of ciclesonide (n=8) (mean (SEM)

[6] = 450 μg ciclesonide/horse twice daily 14 days per inhalation (nozzle A), 1st study, D 0
[7] = 450 μg ciclesonide/horse twice daily 14 days per inhalation (nozzle A), 1st study, D 14
[8] = 450 μg ciclesonide/horse twice daily 14 days per inhalation (nozzle A), 1st study, D 21
[9] = 900 μg ciclesonide/horse twice daily 14 days per inhalation (nozzle A), 1st study, D 0
[10] = 900 μg ciclesonide/horse twice daily 14 days per inhalation (nozzle A), 1st study, D 14
[11] = 900 μg ciclesonide/horse twice daily 14 days per inhalation (nozzle A), 1st study, D 21
[12] = 1687.5 μg ciclesonide/horse twice daily 14 days per inhalation (nozzle B), 2nd study, D 0
[13] = 1687.5 μg ciclesonide/horse twice daily 14 days per inhalation (nozzle B), 2nd study, D 14
[14] = 1687.5 μg ciclesonide/horse twice daily 14 days per inhalation (nozzle B), 2nd study, D 21
[15] = 1800 μg ciclesonide/horse twice daily 14 days per inhalation (nozzle A), 1st study, D 0
[16] = 1800 μg ciclesonide/horse twice daily 14 days per inhalation (nozzle A), 1st study, D 14
[17] = 1800 μg ciclesonide/horse twice daily 14 days per inhalation (nozzle A), 1st study, D 21
[18] = 2700 μg ciclesonide A (nozzle A)/horse twice daily 14 days per inhalation, 2nd study, D 0
[19] = 2700 μg ciclesonide A (nozzle A)/horse twice daily 14 days per inhalation, 2nd study, D 14
[20] = 2700 μg ciclesonide A (nozzle A)/horse twice daily 14 days per inhalation, 2nd study, D 21
[21] = 2700 μg ciclesonide B (nozzle B)/horse twice daily 14 days per inhalation, 2nd study, D 0
[22] = 2700 μg ciclesonide B (nozzle B)/horse twice daily 14 days per inhalation, 2nd study, D 14
[23] = 2700 μg ciclesonide B (nozzle B)/horse twice daily 14 days per inhalation, 2nd study, D 21

CC(C)C(=O)OCC(=O)[C@@]12O[C@H](C3CCCCC3)O[C@@H]1C[C@H]1[C@@H]3CCC4=CC(=O)C=C[C@]4(C)[C@H]3[C@@H](O)C[C@@]12C [ciclesonide, (11β,16α)-16,17-[[(R)-Cyclohexylmethylene]bis(oxy)]-11-hydroxy-21-(2-methyl-1-oxopropoxy)pregna-1,4-diene-3,20-dione]
ΔPL and EL compared to pretreatment values (RAO horses [1]; ciclesonide 1800 μg/horse ex RESPIMAT twice daily per inhalation, p=0.0005 and p=0.0004): statistically significant reduction | ΔPL and EL, difference to dexamethasone group (RAO horses [1]; ciclesonide 1800 μg/horse ex RESPIMAT twice daily): no significant difference | serum cortisol levels (RAO horses [2]): no significant reduction | all lung function variables (ΔPL, RL, EL) compared to pretreatment values (RAO horses [3]; all ciclesonide groups (1687.5 μg nozzle B/2700 μg nozzle A/2700 μg nozzle B twice daily), after 14 days, p=0.0009 to p<0.0001): significantly reduced | lung function variables, difference to dexamethasone group (RAO horses [3]; all ciclesonide groups (1687.5/2700 A/2700 B μg twice daily), after 7 or 14 days): no significant difference | weighted clinical score compared to pretreatment values (RAO horses [3]; all three ciclesonide groups (1687.5/2700 A/2700 B μg twice daily), after 14 days, p=0.0001 to p<0.0001): significantly reduced | weighted clinical score, difference to dexamethasone group (RAO horses [3]; ciclesonide treatment groups (1687.5/2700 A/2700 B μg twice daily), after 14 days): no significant difference | serum cortisol levels (RAO horses [4]): no significant reduction | Lymphocytes (RAO horses [5]; [6]): 1.96e+09 L⁻¹ | Segmented neutrophils (RAO horses [5]; [6]): 4.66e+09 L⁻¹ | Lymphocytes (RAO horses [5]; [7]): 1.97e+09 L⁻¹ | Segmented neutrophils (RAO horses [5]; [7]): 4.98e+09 L⁻¹ | Lymphocytes (RAO horses [5]; [8]): 2.17e+09 L⁻¹ | Segmented neutrophils (RAO horses [5]; [8]): 5.48e+09 L⁻¹ | Lymphocytes (RAO horses [5]; [9]): 1.85e+09 L⁻¹ | Segmented neutrophils (RAO horses [5]; [9]): 5.24e+09 L⁻¹ | Lymphocytes (RAO horses [5]; [10]): 2.03e+09 L⁻¹ | Segmented neutrophils (RAO horses [5]; [10]): 4.43e+09 L⁻¹ | Lymphocytes (RAO horses [5]; [11]): 1.94e+09 L⁻¹ | Segmented neutrophils (RAO horses [5]; [11]): 4.91e+09 L⁻¹ | Lymphocytes (RAO horses [5]; [12]): 1.93e+09 L⁻¹ | Segmented neutrophils (RAO horses [5]; [12]): 4.51e+09 L⁻¹ | Lymphocytes (RAO horses [5]; [13]): 1.94e+09 L⁻¹ | Segmented neutrophils (RAO horses [5]; [13]): 5.22e+09 L⁻¹ | Lymphocytes (RAO horses [5]; [14]): 2.04e+09 L⁻¹ | Segmented neutrophils (RAO horses [5]; [14]): 4.55e+09 L⁻¹ | Lymphocytes (RAO horses [5]; [15]): 1.95e+09 L⁻¹ | Segmented neutrophils (RAO horses [5]; [15]): 4.6e+09 L⁻¹ | Lymphocytes (RAO horses [5]; [16]): 1.96e+09 L⁻¹ | Segmented neutrophils (RAO horses [5]; [16]): 5.41e+09 L⁻¹ | Lymphocytes (RAO horses [5]; [17]): 2.06e+09 L⁻¹ | Segmented neutrophils (RAO horses [5]; [17]): 4.93e+09 L⁻¹ | Lymphocytes (RAO horses [5]; [18]): 2.04e+09 L⁻¹ | Segmented neutrophils (RAO horses [5]; [18]): 4.91e+09 L⁻¹ | Lymphocytes (RAO horses [5]; [19]): 2.14e+09 L⁻¹ | Segmented neutrophils (RAO horses [5]; [19]): 4.85e+09 L⁻¹ | Lymphocytes (RAO horses [5]; [20]): 2.01e+09 L⁻¹ | Segmented neutrophils (RAO horses [5]; [20]): 4.41e+09 L⁻¹ | Lymphocytes (RAO horses [5]; [21]): 1.8e+09 L⁻¹ | Segmented neutrophils (RAO horses [5]; [21]): 4.23e+09 L⁻¹ | Lymphocytes (RAO horses [5]; [22]): 1.74e+09 L⁻¹ | Segmented neutrophils (RAO horses [5]; [22]): 4.75e+09 L⁻¹ | Lymphocytes (RAO horses [5]; [23]): 2.01e+09 L⁻¹ | Segmented neutrophils (RAO horses [5]; [23]): 4.84e+09 L⁻¹
